Square brackets hold non-standard residues; d marks the D form. Ends that are not written are not given here. * marks the point of attachment. FITC = O=C1OC2(c3ccc(O)cc3Oc3cc(O)ccc32)c2ccc(NC(=S)*)cc21; Pmab = not defined here; PEG = not defined here
T1: peptide 9 (synthetic construct, not fully specified (residue 3); reading uncertain)
T1 chain: {FITC-PEG}-PLHS[Pmab]


Legend:
HeLa cells = experiment: Mitotic arrest and apoptotic cell death in cultured HeLa cells; assay type: cell-based, human; details: 100 nM
peptide 9 = molecular target: T1, peptide 9; experiment: fluorescence polarization

Kd (peptide 9) [nM] | Molecule | induction of mitotic arrest and apoptotic cell death (HeLa cells)
– | CC[C@@H]1C(=O)N(C)c2cnc(Nc3ccc(C(=O)NC4CCN(C)CC4)cc3OC)nc2N1C1CCCC1 [BI 2536] | induced a greatly delayed, but pronounced mitotic arrest and apoptotic cell death
460 | Plk3 PBD PBD (protein) WVSKWVDYSNKFGFGYQLSSRRVAVLFNDGTHMALSANRKTVHYNPTSTKHFSFSVGAVPRALQPQLGILRYFASYMEQHLMKGGDLPSVEEVEVPAPPLLLQWVKTDQALLMLFSDGTVQVNFYGDHTKLILSGWEPLLVTFVARNRSACTYLASHLRQLGCSPDLRQRLRYALRLLRDRSP | –

From paper PMC3158281 (Nature chemical biology, 2011)
